Source: patent US10731221B2, “Diagnosing IDH1 related subgroups and treatment of cancer” (Dignity Health, priority 2009, dated 2020)

Legend:
[1] = tested on: GBM, AKT SL (secondary-like) subtype; experiment: Kaplan Meier survival of TCGA GBM patients receiving or not receiving BCNU and/or CCNU, by AKT subgroup; type: in vivo, human; details: for survival advantage: Secondary-Like patients, CCNU/BCNU; for median survival: TCGA SL patients treated with BCNU or CCNU (vs. other treatments), p=0.03 after correcting for age, log rank; for sensitivity of patients in the SL subgroup: TCGA SL subgroup
From the text: FIG. 5 depicts, in accordance with various embodiments of the invention, evidence that SL subtype (AKT subgroup 5) patients are sensitive to alkylating agents BCNU and CCNU. Kaplan Meier survival curves for TCGA patients receiving (solid line) or not receiving (dashed line) alkylating agent (BCNU and/or CCNU) by subgroup. p=0.03 after correcting for age (SL subtype; log rank). n=6 and 16 for SL patients receiving or not receiving BCNU/CCNU, respectively.
The discovery dataset (GBM195) consisted of 181 GBM (WHO grade IV astrocytoma; (159 primary and 22 recurrent) from 3 datasets, [4], [21] and 14 non-neoplastic samples from 2 sources: (1) six samples from patients undergoing temporal lobe epilepsy surgery and (2) eight samples from autopsy specimens of cerebral cortex from donors with no history of neurological disorders obtained from the National Neurological Research Brain Bank (Los Angeles, Calif.). Two datasets are in GEO (GSE4271, GSE4412) and the third has been submitted. Table 1 lists GEO ID's and clinical information for GBM195 tumors. Tissue collection and processing, pathological review, and microarray analysis for the discovery dataset (GBM195) has been described elsewhere ([3] Nigro et al. 2005, [4] Phillips et a. 2006, and [21] Freije et al. 2004, which are incorporated herein by reference in their entirety as though fully set forth.) The validation dataset consisted of 583 samples; 573 GBM (16 recurrent and 3 secondary) and 10 non-neoplastic samples from The Cancer Genome Atlas (TCGA). Samples were collected and processed as described ([5] Atlas TCG 2008, which is incorporated herein by reference in its entirety as though fully set forth.). IRB or Committee on Human Research approval was obtained for samples used in the discovery and validation datasets as described, [4], [10], [21].
Differences between one subgroup and the rest were assessed using the F test for […] and the likelihood ratio test for categorical variables. The Bonferroni method was applied to correct for multiple hypotheses. The inventors applied the Tukey HSD test to find pairwise differences between groups and correct for multiple comparisons. Survival differences between subgroups were assessed using the Chi-squared test. Age was added to build a multivariate Cox model. For survival comparisons of BCNU/CCNU treatment between subgroups there were not enough observations to correct for age. After deleting all observations younger than 45, survival was no longer related to age. Significance was then determined using log rank. The Pearson goodness-of-fit test was used to assess the null hypothesis that proportions of G-CIMP tumors by subgroup and recurrent tumors by subgroup are equal to the proportions for all tumors by subgroup. P-values for these tests were calculated by Monte Carlo simulation since the counts of tumors by subgroup were too small to apply the large sample chi-square approximation.
Since AKT influences response to chemotherapy, while not wishing to be bound by any theory, the inventors believe AKT subgroups are predictive markers. Indeed, TCGA SL patients treated with BCNU or CCNU had longer median survival than those receiving other treatments (FIG. 5; median survival=5.8 vs. 1.05 years; p=0.03 after correcting for age; log rank). […] This finding indicates patients in the SL subgroup are sensitive to BCNU and CCNU.

[2] = tested on: Glioblastoma AKT subgroups (Mesenchymal, Secondary-Like); experiment: Kaplan Meier survival of TCGA patients receiving more vs. less temozolomide, by AKT subgroup; type: in vivo, human
From the text: FIG. 17 depicts, in accordance with various embodiments of the invention, evidence that Mesenchymal patients benefit from temozolomide. Kaplan Meier survival curves were plotted within each subgroup for TCGA patients receiving more (≥3 cycles; red) vs. less (<3 cycles; black) temozolomide. […] Median survival was 0.6 years greater for Mesenchymal patients treated with more temozolomide (1.8 years) vs. less temozolomide (1.2 years); p=0.01 log rank; not age adjusted.
We plotted Kaplan Meier survival curves for patients treated with more vs. less TMZ in each AKT subgroup (FIG. 17). Since most TCGA patients received some TMZ, it was not possible to plot survival curves for patients treated with and without the drug. Instead, we compared survival in 2 treatment arms, those receiving more (≥3) vs. less (<3) cycles.
There was a tendency for patients who received more TMZ to not have received a nitrosourea. […] Without wishing to be bound by any particular theory, this may underlie the worse survival of patients receiving more TMZ in the Secondary-Like subgroup.

| Compound | survival advantage [1] [year] | median survival [1] [years] | sensitivity of patients in the SL subgroup [1] | median survival ([2]; less temozolomide (<3 cycles)) [years] | median survival ([2]; more temozolomide (≥3 cycles), p=0.01 log rank, not age adjusted) [years] | Median survival difference, more vs. less temozolomide ([2]; ≥3 vs. <3 cycles) [years] |
| --- | --- | --- | --- | --- | --- | --- |
| O=NN(CCCl)C(=O)NC1CCCCC1 [CCNU, lomustine] | 4.5 | 5.8 | sensitive | – | – | – |
| O=NN(CCCl)C(=O)NCCCl [BCNU, carmustine] | 4.5 | 5.8 | sensitive | – | – | – |
| Cn1nnc2c(C(N)=O)ncn2c1=O [temozolomide] | – | – | – | 1.2 | 1.8 | 0.6 |
